# Results from US20220016115A1, “USP19 INHIBITORS FOR USE IN THERAPY” (ALMAC DISCOVERY LIMITED, priority 2018, published 2022).
# Target: T1, USP19 (Homo sapiens, UniProt O94966)
# T1 sequence (O94966 1-1318): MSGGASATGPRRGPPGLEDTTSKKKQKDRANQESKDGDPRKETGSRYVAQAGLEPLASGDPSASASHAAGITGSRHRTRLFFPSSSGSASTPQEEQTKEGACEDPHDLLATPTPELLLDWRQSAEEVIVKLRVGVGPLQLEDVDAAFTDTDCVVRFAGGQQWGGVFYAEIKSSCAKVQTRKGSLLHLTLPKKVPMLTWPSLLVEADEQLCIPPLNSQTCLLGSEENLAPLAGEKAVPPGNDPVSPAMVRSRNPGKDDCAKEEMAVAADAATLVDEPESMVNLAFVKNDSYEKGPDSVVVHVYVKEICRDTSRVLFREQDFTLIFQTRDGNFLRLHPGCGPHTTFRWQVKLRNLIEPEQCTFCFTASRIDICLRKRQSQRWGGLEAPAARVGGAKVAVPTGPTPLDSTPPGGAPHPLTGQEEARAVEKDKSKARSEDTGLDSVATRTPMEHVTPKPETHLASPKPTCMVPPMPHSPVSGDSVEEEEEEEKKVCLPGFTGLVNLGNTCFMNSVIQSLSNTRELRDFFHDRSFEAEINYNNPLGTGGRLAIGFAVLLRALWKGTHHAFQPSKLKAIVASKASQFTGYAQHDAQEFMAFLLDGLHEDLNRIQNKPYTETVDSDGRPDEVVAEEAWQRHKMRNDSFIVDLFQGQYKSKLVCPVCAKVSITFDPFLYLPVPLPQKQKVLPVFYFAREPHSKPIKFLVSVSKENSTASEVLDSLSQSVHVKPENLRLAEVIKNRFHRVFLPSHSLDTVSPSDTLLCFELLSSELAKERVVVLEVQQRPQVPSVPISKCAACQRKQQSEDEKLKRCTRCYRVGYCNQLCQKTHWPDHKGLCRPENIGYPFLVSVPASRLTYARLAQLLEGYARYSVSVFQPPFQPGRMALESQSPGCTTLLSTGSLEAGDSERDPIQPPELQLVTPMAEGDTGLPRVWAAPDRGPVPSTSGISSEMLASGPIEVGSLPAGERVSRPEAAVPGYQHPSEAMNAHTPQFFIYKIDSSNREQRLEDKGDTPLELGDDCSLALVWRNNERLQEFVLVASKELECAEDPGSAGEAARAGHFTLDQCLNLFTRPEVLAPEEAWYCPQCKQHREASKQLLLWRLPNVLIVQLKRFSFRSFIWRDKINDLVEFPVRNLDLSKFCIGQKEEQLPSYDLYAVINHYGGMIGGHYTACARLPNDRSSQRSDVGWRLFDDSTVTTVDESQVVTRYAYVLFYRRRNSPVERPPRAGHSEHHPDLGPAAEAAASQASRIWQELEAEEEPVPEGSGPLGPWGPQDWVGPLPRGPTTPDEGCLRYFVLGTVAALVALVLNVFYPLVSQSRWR
# Experiment: USP19 fluorescence polarisation (FP) homogeneous assay
# Assay type: biochemical
# Set-up: Full-length USP19 was purchased from Boston Biochem (E-576); purchased Boston Biochem E-576
# Settings: Ubiquitin-Lys-TAMRA substrate, full-length USP19 2.5 nM, average of at least two duplicate experiments
# Procedure, shortened: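 Inhibitors serially diluted in buffer (200 μM to 2 μM, 8-18 points) and preincubated 30 min at RT before starting with 500 nM Ub substrate.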
row,SMILES,IC50
1,"CN(C)C(=O)c1cn(C[C@]2(O)CCN(C(=O)[C@H](CO)CC(F)(F)F)CC23CCCC3)c(=O)cc1-c1ccccc1 [Example 247, 1-(((S)-10-Hydroxy-7-((S)-4,4,4-trifluoro-2-(hydroxymethyl)butanoyl)-7-azaspiro[4.5]decan-10-yl)methyl)-N,N-dimethyl-6-oxo-4-phenyl-1,6-dihydropyridine-3-carboxamide]",< 500 nM
2,"O=C(c1cn(C[C@]2(O)CCN(C(=O)[C@H](CO)CC(F)(F)F)CC23CCCC3)c(=O)cc1-c1ccccc1)N1CCOCC1 [Example 248, 1-(((S)-10-Hydroxy-7-((S)-4,4,4-trifluoro-2-(hydroxymethyl)butanoyl)-7-azaspiro[4.5]decan-10-yl)methyl)-5-(morpholine-4-carbonyl)-4-phenylpyridin-2(1H)-one]",< 500 nM
3,"O=C(c1cn(C[C@]2(O)CCN(C(=O)[C@H](CO)CC(F)(F)F)CC23CCCC3)c(=O)cc1-c1ccccc1)N1CCNCC1 [Example 249, 1-(((S)-10-Hydroxy-7-((S)-4,4,4-trifluoro-2-(hydroxymethyl)butanoyl)-7-azaspiro[4.5]decan-10-yl)methyl)-4-phenyl-5-(piperazine-1-carbonyl)pyridin-2(1H)-one]",< 500 nM
4,"C[C@H](CC(F)(F)F)C(=O)N1CC[C@@](O)(Cn2cc(C(=O)N3CCOCC3)c(-c3ccccc3)cc2=O)C2(CCCC2)C1 [Example 250, 1-(((S)-10-Hydroxy-7-((R)-4,4,4-trifluoro-2-methylbutanoyl)-7-azaspiro[4.5]decan-10-yl)methyl)-5-(morpholine-4-carbonyl)-4-phenylpyridin-2(1H)-one]",< 500 nM
5,"C[C@H](CC(F)(F)F)C(=O)N1CC[C@@](O)(Cn2cc(C(=O)N3CCN(C)CC3)c(-c3ccccc3)cc2=O)C2(CCCC2)C1 [Example 251, 1-(((S)-10-Hydroxy-7-((R)-4,4,4-trifluoro-2-methylbutanoyl)-7-azaspiro[4.5]decan-10-yl)methyl)-5-(4-methylpiperazine-1-carbonyl)-4-phenylpyridin-2(1 H)-one]",< 500 nM
6,"O=C([C@@H]1CCNC[C@H]1c1ccccc1)N1CCC(O)(Cn2cnc(-c3ccccc3)cc2=O)C2(CCCC2)C1 (stereo partly drawn) [Example 254, 3-((10-Hydroxy-7-((3R,4R)-3-phenylpiperidine-4-carbonyl)-7-azaspiro[4.5]decan-10-yl)methyl)-6-phenylpyrimidin-4(3H)-one]",< 500 nM
7,"C[C@H](CC(F)(F)F)C(=O)N1CC[C@@](O)(Cn2cnc(-c3ccccc3)cc2=O)C2(CCCC2)C1 [Example 255, 3-(((S)-10-Hydroxy-7-((R)-4,4,4-trifluoro-2-methylbutanoyl)-7-azaspiro[4.5]decan-10-yl)methyl)-6-phenylpyrimidin-4(3H)-one]",< 500 nM
8,"C[C@H](CC(F)(F)F)C(=O)N1CC[C@@](O)(Cn2cnc(-c3ccccc3F)cc2=O)C2(CCCC2)C1 [Example 256, 6-(2-Fluorophenyl)-3-(((S)-10-hydroxy-7-((R)-4,4,4-trifluoro-2-methylbutanoyl)-7-azaspiro[4.5]decan-10-yl)methyl)pyrimidin-4(3H)-one]",< 500 nM
9,"C[C@H](CC(F)(F)F)C(=O)N1CC[C@@](O)(Cn2cnc(-c3cccc(F)c3)cc2=O)C2(CCCC2)C1 [Example 257, 6-(3-Fluorophenyl)-3-(((S)-10-hydroxy-7-((R)-4,4,4-trifluoro-2-methylbutanoyl)-7-azaspiro[4.5]decan-10-yl)methyl)pyrimidin-4(3H)-one]",< 500 nM
10,"C[C@H](CC(C)(F)F)C(=O)N1CC[C@@](O)(Cn2cnc(-c3ccccc3)cc2=O)C2(CCCC2)C1 [Example 258, 3-(((S)-7-((R)-4,4-Difluoro-2-methylpentanoyl)-10-hydroxy-7-azaspiro[4.5]decan-10-yl)methyl)-6-phenylpyrimidin-4(3H)-one]",< 500 nM

# Now from value to compound:
row,IC50,SMILES
1,< 500 nM,"C[C@H](CC1CCCCC1)C(=O)N1CCC(O)(Cn2cc(C(=O)N(C)C)c(-c3ccccc3)cc2=O)C2(CCCCC2)C1 (stereo partly drawn) [Example 237, 1-((2-((R)-3-Cyclohexyl-2-methylpropanoyl)-5-hydroxy-2-azaspiro[5.5]undecan-5-yl)methyl)-N,N-dimethyl-6-oxo-4-phenyl-1,6-dihydropyridine-3-carboxamide]"
2,< 500 nM,"C[C@H](CC1CCCCC1)C(=O)N1CCC(O)(Cn2cc(C(=O)N3CCNCC3)c(-c3ccccc3)cc2=O)C2(CCCCC2)C1 (stereo partly drawn) [Example 238, 1-((2-((R)-3-Cyclohexyl-2-methylpropanoyl)-5-hydroxy-2-azaspiro[5.5]undecan-5-yl)methyl)-4-phenyl-5-(piperazine-1-carbonyl)pyridin-2(1H)-one]"
3,< 500 nM,"C[C@H](CC1CCCCC1)C(=O)N1CC[C@@](O)(Cn2cc(C(=O)N3CCOCC3)c(-c3ccccc3)cc2=O)C2(CCCC2)C1 [Example 239, 1-(((S)-7-((R)-3-Cyclohexyl-2-methylpropanoyl)-10-hydroxy-7-azaspiro[4.5]decan-10-yl)methyl)-5-(morpholine-4-carbonyl)-4-phenylpyridin-2(1H)-one]"
4,< 500 nM,"C[C@H](CC1CCCCC1)C(=O)N1CC[C@@](O)(Cn2cc(C(=O)N3CCN(C)CC3)c(-c3ccccc3)cc2=O)C2(CCCC2)C1 [Example 240, 1-(((S)-7-((R)-3-Cyclohexyl-2-methylpropanoyl)-10-hydroxy-7-azaspiro[4.5]decan-10-yl)methyl)-5-(4-methylpiperazine-1-carbonyl)-4-phenylpyridin-2(1 H)-one]"
5,< 500 nM,"CCOC(=O)c1cn(C[C@]2(O)CCN(C(=O)[C@H](C)CC3CCCCC3)CC23CCCC3)c(=O)cc1-c1ccccc1 [Example 252, Ethyl 1-(((S)-7-((R)-3-cyclohexyl-2-methylpropanoyl)-10-hydroxy-7-azaspiro[4.5]decan-10-yl)methyl)-6-oxo-4-phenyl-1,6-dihydropyridine-3-carboxylate]"
6,< 500 nM,"C[C@H](CC1CCCCC1)C(=O)N1CC[C@@](O)(Cn2cc(C(=O)O)c(-c3ccccc3)cc2=O)C2(CCCC2)C1 [Example 253, 1-(((S)-7-((R)-3-Cyclohexyl-2-methylpropanoyl)-10-hydroxy-7-azaspiro[4.5]decan-10-yl)methyl)-6-oxo-4-phenyl-1,6-dihydropyridine-3-carboxylic acid]"
